From PubChem BioAssay (NCI)
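Abbreviation: GI50, concentration required for 50% inhibition of growth. TGI marks complete inhibition of growth.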

Legend:
Test in all cases: growth of human tumour cells (NCI), 384-well format
[1] = tested on: UACC-257 melanoma
[2] = tested on: OVCAR-4 ovarian
[3] = tested on: MDA-MB-468 breast
[4] = tested on: NCI-H322M lung
[5] = tested on: TK-10 renal
[6] = tested on: HCT-15 colon
[7] = tested on: PC-3 prostate
[8] = tested on: NCI-H226 lung
[9] = tested on: SF-539 CNS
[10] = tested on: K-562 leukemia
[11] = tested on: A549 NSCLC
[12] = tested on: SNB-19 CNS
[13] = tested on: MOLT-4 leukemia
[14] = tested on: NCI-H522 lung
[15] = tested on: MDA-MB-231 breast
[16] = tested on: OVCAR-8 ovarian
[17] = tested on: OVCAR-5 ovarian
[18] = tested on: RXF 393 renal
[19] = tested on: SW-620 colon
[20] = tested on: KM12 colon
[21] = tested on: SN12C renal
[22] = tested on: M14 melanoma
[23] = tested on: SF-295 CNS
[24] = tested on: SK-MEL-5 melanoma
[25] = tested on: NCI-H23 lung
[26] = tested on: SNB-75 CNS
[27] = tested on: OVCAR-3 ovarian
[28] = tested on: CCRF-CEM leukemia
[29] = tested on: MCF7 breast
[30] = tested on: IGROV1 ovarian
[31] = tested on: SK-OV-3 ovarian
[32] = tested on: U251 glioblastoma
[33] = tested on: NCI-H460 NSCLC
[34] = tested on: SR leukemia
[35] = tested on: HS 578T breast
[36] = tested on: NCI/ADR-RES ovarian
[37] = tested on: SF-268 CNS
[38] = tested on: HCT-116 colon
[39] = tested on: HOP-62 NSCLC
[40] = tested on: RPMI-8226 leukemia
[41] = tested on: ACHN renal
[42] = tested on: MDA-MB-435 melanoma
[43] = tested on: MALME-3M melanoma
[44] = tested on: EKVX NSCLC
[45] = tested on: BT-549 breast
[46] = tested on: CAKI-1 renal
[47] = tested on: T-47D breast
[48] = tested on: SK-MEL-28 melanoma
[49] = tested on: LOX IMVI melanoma
[50] = tested on: DU-145 prostate
[51] = tested on: HT29 colon
[52] = tested on: HOP-92 NSCLC
[53] = tested on: 786-0 renal
[54] = tested on: COLO 205 colon
[55] = tested on: HCC-2998 colon
[56] = tested on: A498 renal
[57] = tested on: UO-31 renal

Which GI50 [1] does the source give for `COc1cccc2c1ccc1nc3cccc(C(=O)N[C@H](C)CN(C)C)c3nc12` here?
The GI50 was 104 nM.

And the TGI [1]?
The TGI was 230 nM.

And the GI50 [2]?
The GI50 was 130 nM.

And the TGI [2]?
Its TGI is 388 nM.

And the GI50 [3]?
Its GI50 is 23.8 nM.

What about the TGI [3] of the same compound?
Its TGI is 63.9 nM.

And the GI50 [4]?
The GI50 was 115 nM.

And the TGI [4]?
Its TGI is 361 nM.

And the GI50 [5]?
The GI50 was 90.5 nM.

What about the TGI [5] of the same compound?
The TGI was 554 nM.

What about the GI50 [6] of the same compound?
Its GI50 is 41.3 nM.

And the TGI [6]?
Its TGI is 187 nM.

And the GI50 [7]?
Its GI50 is 142 nM.

What about the TGI [7] of the same compound?
Its TGI is 603 nM.

What about the GI50 [8] of the same compound?
Its GI50 is 73.4 nM.

And the TGI [8]?
Its TGI is 340 nM.

What about the GI50 [9] of the same compound?
Its GI50 is 52.8 nM.

And the TGI [9]?
Its TGI is 174 nM.

And the GI50 [10]?
Its GI50 is 45.4 nM.

What about the TGI [10] of the same compound?
Its TGI is 156 nM.

And the GI50 [11]?
Its GI50 is 42.9 nM.

What about the TGI [11] of the same compound?
Its TGI is 904 nM.

What about the GI50 [12] of the same compound?
The GI50 was 75.2 nM.

And the TGI [12]?
Its TGI is 1050 nM.

And the GI50 [13]?
Its GI50 is 15.5 nM.

And the TGI [13]?
The TGI was 29.1 nM.

And the GI50 [14]?
The GI50 was 102 nM.

And the TGI [14]?
Its TGI is 278 nM.

And the GI50 [15]?
Its GI50 is 110 nM.

And the TGI [15]?
The TGI was 393 nM.

And the GI50 [16]?
The GI50 was 96.8 nM.

What about the TGI [16] of the same compound?
The TGI was 273 nM.

What about the GI50 [17] of the same compound?
Its GI50 is 127 nM.

And the TGI [17]?
The TGI was 12200 nM.

What about the GI50 [18] of the same compound?
Its GI50 is 111 nM.

What about the TGI [18] of the same compound?
Its TGI is 242 nM.

What about the GI50 [19] of the same compound?
The GI50 was 29.9 nM.

And the TGI [19]?
Its TGI is 290 nM.

And the GI50 [20]?
The GI50 was 84.7 nM.

What about the TGI [20] of the same compound?
The TGI was 881 nM.

And the GI50 [21]?
Its GI50 is 77.4 nM.

And the TGI [21]?
Its TGI is 249 nM.

And the GI50 [22]?
The GI50 was 101 nM.

And the TGI [22]?
Its TGI is 225 nM.

And the GI50 [23]?
Its GI50 is 37.6 nM.

And the TGI [23]?
The TGI was 221 nM.

What about the GI50 [24] of the same compound?
The GI50 was 35.3 nM.

What about the TGI [24] of the same compound?
Its TGI is 90.4 nM.

And the GI50 [25]?
The GI50 was 91.5 nM.

And the TGI [25]?
Its TGI is 216 nM.

What about the GI50 [26] of the same compound?
Its GI50 is 111 nM.

And the TGI [26]?
The TGI was 238 nM.

And the GI50 [27]?
The GI50 was 72.9 nM.

And the TGI [27]?
The TGI was 292 nM.

And the GI50 [28]?
The GI50 was 42.3 nM.

And the TGI [28]?
Its TGI is 160 nM.

And the GI50 [29]?
The GI50 was 46.7 nM.

What about the TGI [29] of the same compound?
The TGI was 1100 nM.

What about the GI50 [30] of the same compound?
Its GI50 is 61.9 nM.

What about the TGI [30] of the same compound?
Its TGI is 609 nM.

And the GI50 [31]?
Its GI50 is 85 nM.

And the TGI [31]?
Its TGI is 430 nM.

And the GI50 [32]?
The GI50 was 57.8 nM.

And the TGI [32]?
Its TGI is 311 nM.

And the GI50 [33]?
The GI50 was 34.4 nM.

And the TGI [33]?
Its TGI is 112 nM.

And the TGI [34]?
Its TGI is 20.4 nM.

What about the GI50 [35] of the same compound?
The GI50 was 141 nM.

And the TGI [35]?
Its TGI is 289 nM.

What about the GI50 [36] of the same compound?
Its GI50 is 55.2 nM.

And the TGI [36]?
The TGI was 215 nM.

And the GI50 [37]?
Its GI50 is 63.5 nM.

And the TGI [37]?
The TGI was 228 nM.

What about the GI50 [38] of the same compound?
The GI50 was 35.3 nM.

What about the TGI [38] of the same compound?
The TGI was 1080 nM.

What about the GI50 [39] of the same compound?
Its GI50 is 56 nM.

And the TGI [39]?
Its TGI is 231 nM.

And the GI50 [40]?
Its GI50 is 27.1 nM.

And the TGI [40]?
The TGI was 74.6 nM.

What about the GI50 [41] of the same compound?
The GI50 was 28.3 nM.

What about the TGI [41] of the same compound?
Its TGI is 243 nM.

And the GI50 [42]?
Its GI50 is 106 nM.

What about the TGI [42] of the same compound?
Its TGI is 229 nM.

And the GI50 [43]?
Its GI50 is 28.3 nM.

And the TGI [43]?
Its TGI is 68 nM.

And the GI50 [44]?
The GI50 was 156 nM.

What about the TGI [44] of the same compound?
Its TGI is 380 nM.

What about the GI50 [45] of the same compound?
The GI50 was 125 nM.

What about the TGI [45] of the same compound?
The TGI was 268 nM.

What about the GI50 [46] of the same compound?
Its GI50 is 37.3 nM.

What about the TGI [46] of the same compound?
The TGI was 2720 nM.

What about the GI50 [47] of the same compound?
Its GI50 is 117 nM.

What about the TGI [47] of the same compound?
The TGI was 315 nM.

And the GI50 [48]?
Its GI50 is 123 nM.

And the TGI [48]?
Its TGI is 291 nM.

And the GI50 [49]?
Its GI50 is 45.9 nM.

And the TGI [49]?
Its TGI is 155 nM.

And the GI50 [50]?
The GI50 was 69.2 nM.

And the TGI [50]?
The TGI was 524 nM.

What about the GI50 [51] of the same compound?
Its GI50 is 103 nM.

What about the TGI [51] of the same compound?
The TGI was 11800 nM.

And the GI50 [52]?
The GI50 was 92 nM.

What about the TGI [52] of the same compound?
The TGI was 1620 nM.

And the GI50 [53]?
Its GI50 is 57.5 nM.

And the TGI [53]?
The TGI was 861 nM.

What about the GI50 [54] of the same compound?
Its GI50 is 12.8 nM.

And the TGI [54]?
Its TGI is 99.9 nM.

What about the GI50 [55] of the same compound?
The GI50 was 41.4 nM.

What about the TGI [55] of the same compound?
Its TGI is 162 nM.

And the GI50 [56]?
The GI50 was 51.1 nM.

What about the TGI [56] of the same compound?
The TGI was 384 nM.

What about the GI50 [57] of the same compound?
Its GI50 is 56.1 nM.

And the TGI [57]?
Its TGI is 398 nM.
